Laboratory results taken from patent US5480777A (priority 1995, dated 1996).
Values joined by “and” are separate entries in the source; they are usually repeats but may differ in a detail not shown here. Identical values can stand only once.

System: phosphoenolpyruvate carboxylase (PEPC)
Format: biochemical, wheat germ

SMILES: [K+].[O-][Cl+2]([O-])[O-] [KClO3]
- k × 10^3: 24

SMILES: [K+].[O-][Cl+3]([O-])([O-])[O-] [KClO4]
- T1/2 (half-life seconds): 104 s
- k × 10^3: 6.3

SMILES: [I-].[K+] [KI]
- k × 10^3: 12

SMILES: N#CS [KSCN, potassium thiocyanate]
- k × 10^3: 4.67 and 4.70 and 4.72 and 4.62 and 4.55 and 4.46
